{
  "source": "PubChem BioAssay AID192",
  "about": "(DTP/NCI, 2004)",
  "tested_on": "BDF1 mice, B16 melanoma ip, median survival T/C",
  "experiment": "NCI In Vivo Anticancer Drug Screen. Data for tumor model B16 Melanoma (intraperitoneal) in B6D2F1 (BDF1) mice",
  "settings": "endpoint: median survival time, higher = longer survival",
  "method_in_brief": "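Tumor-bearing mice received test compound or vehicle. Survival or tumor size was then measured in both groups. The treated-group figure was divided by the control-group figure.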",
  "note": "Where “and” joins values, the source holds several entries; their conditions need not be identical. Identical values can stand only once. Inconclusive results and toxic doses are left out.",
  "data": [
    {"smiles": "COc1cc(NS(C)(=O)=O)ccc1Nc1c2ccccc2nc2ccccc12", "values": [
      {"measurement": "T/C", "setting": "dose: 0.1 mg/kg/injection, schedule: Q01DX009 (ip), vehicle: saline", "result": "102 % of control"},
      {"measurement": "T/C", "setting": "dose: 0.2 mg/kg/injection, schedule: Q01DX009 (ip), vehicle: saline", "result": "118 % of control"},
      {"measurement": "T/C", "setting": "dose: 0.25 mg/kg/injection, schedule: Q01DX009 (ip), vehicle: other", "result": "119 % of control"},
      {"measurement": "T/C", "setting": "dose: 0.5 mg/kg/injection, schedule: Q01DX009 (ip), vehicle: Klucel (hydroxypropylcellulose) (HPC)", "result": "183 % of control"},
      {"measurement": "T/C", "setting": "dose: 0.5 mg/kg/injection, schedule: Q01DX009 (ip), vehicle: lactic acid", "result": "150 % of control"},
      {"measurement": "T/C", "setting": "dose: 0.5 mg/kg/injection, schedule: Q01DX009 (ip), vehicle: other", "result": "120 % of control"},
      {"measurement": "T/C", "setting": "dose: 0.5 mg/kg/injection, schedule: Q03HX024 (oral), vehicle: lactic acid", "result": "100 % of control"},
      {"measurement": "T/C", "setting": "dose: 0.75 mg/kg/injection, schedule: Q01DX009 (ip), vehicle: other", "result": "113 % of control"},
      {"measurement": "T/C", "setting": "dose: 0.8 mg/kg/injection, schedule: Q01DX005 (iv), vehicle: lactic acid", "result": "100 % of control"},
      {"measurement": "T/C", "setting": "dose: 0.8 mg/kg/injection, schedule: Q01DX009 (ip), vehicle: Klucel (hydroxypropylcellulose) (HPC)", "result": "180 % of control"},
      {"measurement": "T/C", "setting": "dose: 0.8 mg/kg/injection, schedule: Q01DX009 (ip), vehicle: saline", "result": "177 % of control"},
      {"measurement": "T/C", "setting": "dose: 0.8 mg/kg/injection, schedule: Q04DX003 (iv), vehicle: lactic acid", "result": "102 % of control"},
      {"measurement": "T/C", "setting": "dose: 1.0 mg/kg/injection, schedule: Q01DX009 (ip), vehicle: Klucel (hydroxypropylcellulose) (HPC)", "result": "160 % of control and 166 % of control and 189 % of control"},
      {"measurement": "T/C", "setting": "dose: 1.0 mg/kg/injection, schedule: Q01DX009 (ip), vehicle: clinical formulation", "result": "183 % of control"},
      {"measurement": "T/C", "setting": "dose: 1.0 mg/kg/injection, schedule: Q01DX009 (ip), vehicle: lactic acid", "result": "202 % of control"},
      {"measurement": "T/C", "setting": "dose: 1.0 mg/kg/injection, schedule: Q01DX009 (oral), vehicle: lactic acid", "result": "96 % of control"},
      {"measurement": "T/C", "setting": "dose: 1.0 mg/kg/injection, schedule: Q01DX009 (oral), vehicle: other", "result": "106 % of control and 109 % of control"},
      {"measurement": "T/C", "setting": "dose: 1.0 mg/kg/injection, schedule: Q03HX024 (oral), vehicle: lactic acid", "result": "97 % of control"},
      {"measurement": "T/C", "setting": "dose: 1.0 mg/kg/injection, schedule: Q04DX003 (ip), vehicle: other", "result": "118 % of control"},
      {"measurement": "T/C", "setting": "dose: 1.25 mg/kg/injection, schedule: Q01DX009 (ip), vehicle: saline", "result": "177 % of control"},
      {"measurement": "T/C", "setting": "dose: 1.5 mg/kg/injection, schedule: Q01DX009 (ip), vehicle: other", "result": "114 % of control"},
      {"measurement": "T/C", "setting": "dose: 1.6 mg/kg/injection, schedule: Q01DX005 (iv), vehicle: lactic acid", "result": "110 % of control"},
      {"measurement": "T/C", "setting": "dose: 1.6 mg/kg/injection, schedule: Q04DX003 (iv), vehicle: lactic acid", "result": "92 % of control"},
      {"measurement": "T/C", "setting": "dose: 2.0 mg/kg/injection, schedule: Q01DX009 (ip), vehicle: Klucel (hydroxypropylcellulose) (HPC)", "result": "184 % of control"},
      {"measurement": "T/C", "setting": "dose: 2.0 mg/kg/injection, schedule: Q01DX009 (ip), vehicle: clinical formulation", "result": "212 % of control"},
      {"measurement": "T/C", "setting": "dose: 2.0 mg/kg/injection, schedule: Q01DX009 (ip), vehicle: lactic acid", "result": "218 % of control"},
      {"measurement": "T/C", "setting": "dose: 2.0 mg/kg/injection, schedule: Q01DX009 (ip), vehicle: other", "result": "158 % of control"},
      {"measurement": "T/C", "setting": "dose: 2.0 mg/kg/injection, schedule: Q01DX009 (oral), vehicle: lactic acid", "result": "98 % of control"},
      {"measurement": "T/C", "setting": "dose: 2.0 mg/kg/injection, schedule: Q01DX009 (oral), vehicle: other", "result": "105 % of control and 109 % of control"},
      {"measurement": "T/C", "setting": "dose: 2.0 mg/kg/injection, schedule: Q03HX016 (oral), vehicle: lactic acid", "result": "101 % of control"},
      {"measurement": "T/C", "setting": "dose: 2.0 mg/kg/injection, schedule: Q03HX024 (oral), vehicle: lactic acid", "result": "101 % of control"},
      {"measurement": "T/C", "setting": "dose: 2.0 mg/kg/injection, schedule: Q04DX003 (oral), vehicle: lactic acid", "result": "105 % of control"},
      {"measurement": "T/C", "setting": "dose: 2.0 mg/kg/injection, schedule: Q04DX003 (oral), vehicle: other", "result": "105 % of control and 96 % of control"},
      {"measurement": "T/C", "setting": "dose: 3.0 mg/kg/injection, schedule: Q01DX009 (ip), vehicle: Klucel (hydroxypropylcellulose) (HPC)", "result": "250 % of control"},
      {"measurement": "T/C", "setting": "dose: 3.12 mg/kg/injection, schedule: Q01DX009 (ip), vehicle: saline", "result": "113 % of control"},
      {"measurement": "T/C", "setting": "dose: 3.3 mg/kg/injection, schedule: Q01DX005 (iv), vehicle: lactic acid", "result": "155 % of control"},
      {"measurement": "T/C", "setting": "dose: 3.3 mg/kg/injection, schedule: Q04DX003 (iv), vehicle: lactic acid", "result": "105 % of control"},
      {"measurement": "T/C", "setting": "dose: 3.75 mg/kg/injection, schedule: Q04DX003 (ip), vehicle: clinical formulation", "result": "173 % of control"},
      {"measurement": "T/C", "setting": "dose: 4.0 mg/kg/injection, schedule: Q01DX009 (oral), vehicle: lactic acid", "result": "105 % of control"},
      {"measurement": "T/C", "setting": "dose: 4.0 mg/kg/injection, schedule: Q01DX009 (oral), vehicle: other", "result": "100 % of control and 96 % of control"},
      {"measurement": "T/C", "setting": "dose: 4.0 mg/kg/injection, schedule: Q04DX003 (oral), vehicle: lactic acid", "result": "110 % of control"},
      {"measurement": "T/C", "setting": "dose: 4.0 mg/kg/injection, schedule: Q04DX003 (oral), vehicle: other", "result": "97 % of control and 105 % of control and 103 % of control"},
      {"measurement": "T/C", "setting": "dose: 5.0 mg/kg/injection, schedule: Q01DX009 (ip), vehicle: Klucel (hydroxypropylcellulose) (HPC)", "result": "223 % of control"},
      {"measurement": "T/C", "setting": "dose: 6.0 mg/kg/injection, schedule: Q01DX009 (ip), vehicle: other", "result": "72 % of control"},
      {"measurement": "T/C", "setting": "dose: 6.25 mg/kg/injection, schedule: Q01DX009 (ip), vehicle: saline", "result": "124 % of control"},
      {"measurement": "T/C", "setting": "dose: 6.5 mg/kg/injection, schedule: Q01DX005 (iv), vehicle: lactic acid", "result": "112 % of control"},
      {"measurement": "T/C", "setting": "dose: 6.5 mg/kg/injection, schedule: Q04DX003 (iv), vehicle: lactic acid", "result": "107 % of control"},
      {"measurement": "T/C", "setting": "dose: 7.5 mg/kg/injection, schedule: Q04DX003 (ip), vehicle: clinical formulation", "result": "193 % of control"},
      {"measurement": "T/C", "setting": "dose: 8.0 mg/kg/injection, schedule: Q01DX001 (ip), vehicle: lactic acid", "result": "151 % of control"},
      {"measurement": "T/C", "setting": "dose: 8.0 mg/kg/injection, schedule: Q01DX001 (oral), vehicle: lactic acid", "result": "110 % of control"},
      {"measurement": "T/C", "setting": "dose: 8.0 mg/kg/injection, schedule: Q01DX009 (oral), vehicle: other", "result": "105 % of control and 103 % of control"},
      {"measurement": "T/C", "setting": "dose: 8.0 mg/kg/injection, schedule: Q04DX003 (ip), vehicle: other", "result": "188 % of control"},
      {"measurement": "T/C", "setting": "dose: 8.0 mg/kg/injection, schedule: Q04DX003 (oral), vehicle: lactic acid", "result": "111 % of control"},
      {"measurement": "T/C", "setting": "dose: 8.0 mg/kg/injection, schedule: Q04DX003 (oral), vehicle: other", "result": "105 % of control [middle of 4 runs]"},
      {"measurement": "T/C", "setting": "dose: 8.0 mg/kg/injection, schedule: Q08DX002 (oral), vehicle: lactic acid", "result": "107 % of control"},
      {"measurement": "T/C", "setting": "dose: 12.5 mg/kg/injection, schedule: Q01DX009 (ip), vehicle: saline", "result": "163 % of control"},
      {"measurement": "T/C", "setting": "dose: 12.5 mg/kg/injection, schedule: Q04DX003 (ip), vehicle: Klucel (hydroxypropylcellulose) (HPC)", "result": "166 % of control"},
      {"measurement": "T/C", "setting": "dose: 13.0 mg/kg/injection, schedule: Q04DX003 (iv), vehicle: lactic acid", "result": "120 % of control"},
      {"measurement": "T/C", "setting": "dose: 15.0 mg/kg/injection, schedule: Q04DX003 (ip), vehicle: clinical formulation", "result": "173 % of control"},
      {"measurement": "T/C", "setting": "dose: 16.0 mg/kg/injection, schedule: Q01DX001 (oral), vehicle: lactic acid", "result": "110 % of control"},
      {"measurement": "T/C", "setting": "dose: 16.0 mg/kg/injection, schedule: Q04DX003 (ip), vehicle: other", "result": "152 % of control"},
      {"measurement": "T/C", "setting": "dose: 16.0 mg/kg/injection, schedule: Q04DX003 (oral), vehicle: other", "result": "97 % of control and 113 % of control and 110 % of control"},
      {"measurement": "T/C", "setting": "dose: 16.0 mg/kg/injection, schedule: Q08DX002 (oral), vehicle: lactic acid", "result": "108 % of control"},
      {"measurement": "T/C", "setting": "dose: 25.0 mg/kg/injection, schedule: Q01DX001 (ip), vehicle: saline sonified", "result": "166 % of control"},
      {"measurement": "T/C", "setting": "dose: 25.0 mg/kg/injection, schedule: Q01DX001 (ip), vehicle: saline", "result": "160 % of control"},
      {"measurement": "T/C", "setting": "dose: 25.0 mg/kg/injection, schedule: Q04DX003 (ip), vehicle: Klucel (hydroxypropylcellulose) (HPC)", "result": "285 % of control"},
      {"measurement": "T/C", "setting": "dose: 26.0 mg/kg/injection, schedule: Q04DX003 (iv), vehicle: lactic acid", "result": "120 % of control"},
      {"measurement": "T/C", "setting": "dose: 32.0 mg/kg/injection, schedule: Q01DX001 (oral), vehicle: lactic acid", "result": "116 % of control"},
      {"measurement": "T/C", "setting": "dose: 32.0 mg/kg/injection, schedule: Q04DX003 (oral), vehicle: other", "result": "121 % of control [middle of 4 runs]"},
      {"measurement": "T/C", "setting": "dose: 32.0 mg/kg/injection, schedule: Q08DX002 (oral), vehicle: lactic acid", "result": "115 % of control"},
      {"measurement": "T/C", "setting": "dose: 50.0 mg/kg/injection, schedule: Q01DX001 (ip), vehicle: saline sonified", "result": "102 % of control"},
      {"measurement": "T/C", "setting": "dose: 64.0 mg/kg/injection, schedule: Q04DX003 (oral), vehicle: other", "result": "110 % of control"},
      {"measurement": "T/C", "setting": "dose: 100.0 mg/kg/injection, schedule: Q01DX001 (ip), vehicle: saline sonified", "result": "169 % of control"}
    ]}
  ]
}
